Reference: patent publication US10975068B2, “6-aminopyridin-3-yl thiazoles as modulators of RORγT” (Janssen Pharmaceutica NV, priority 2016, dated 2021)
pIC50, pKd: −log10 of the molar value.

Experiments:
obese diabetic mice = settings: cited from earlier work
mice = settings: cited from earlier work
[1] = molecular target: human RORγt ligand binding domain (RORγt LBD) (Homo sapiens (Human), UniProt P51449); experiment: RORγt ThermoFluor® assay (thermal shift binding); settings: read-out: ThermoFluor® Assay, Kd
In short: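 Binding was inferred from thermal stabilisation (ΔTm) of the E. coli-expressed RORγt LBD (0.065 mg/mL), monitored by 1,8-ANS (60 μM) emission at 500 nm during a 1 °C/min ramp. Buffer was Hepes 100 mM pH 7.0 with NaCl, GSH and Tween-20.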

full-length human RORγt = full-length human RORγt (Homo sapiens (Human), UniProt P51449); experiment: RORγt (full-length human) reporter assay, Conditions A; format: cell-based; settings: Conditions A
In short: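 HEK293T cells transiently co-transfected with GAL4-DBD–full-length human RORγt plus GAL4-firefly and CMV-Renilla luciferase reporters were treated with compound 16–20 h overnight in 1.1% FBS, 0.1% DMSO.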

[2] = tested on: IL-17 production by CD4 T cells; experiment: Human Th17 assay; format: cell-based; settings: read-out: Human Th17 Assay, IC50
Text: The human Th17 assay tests the effect of RORγt modulatory compounds on IL-17 production by CD4 T cells under conditions which favor Th17 differentiation. Total CD4^+ T cells were isolated from the peripheral blood mononuclear cells (PBMC) of healthy donors using a CD4^+ T cell isolation kit II, following the manufacturer's instructions (Miltenyi Biotec). Cells were resuspended in a medium of RPMI-1640 supplemented with 10% fetal bovine serum, penicillin, streptomycin, glutamate, and β-mercaptoethanol and were added to 96-well plates at 1.5×10^5 per 100 μL per well. 50 μL of compound at titrated concentrations in DMSO were added into each well at final DMSO concentration at 0.2%. Cells were incubated for 1 hour, then 50 μL of Th17 cell differentiation medium was added to each well. The final concentrations of antibodies and cytokines (R&D Systems) in differentiation medium were: 3×10^6/mL anti-CD3/CD28 beads (prepared using human T cell activation/expansion kit, Miltenyi Biotec), 10 μg/mL anti-IL4, 10 μg/mL anti-IFNγ, 10 ng/mL IL1β, 10 ng/mL IL23, 50 ng/mL IL6, 3 ng/mL TGFβ and 20 U/mL IL2. Cells were cultured at 37° C. and 5% CO2 for 3 days. Supernatants were collected and the accumulated IL-17 in culture was measured by using MULTI-SPOT® Cytokine Plate following manufacture's instruction (Meso Scale Discovery). The plate was read using Sector Imager 6000, and IL-17 concentration was extrapolated from the standard curve. The IC50s were determined by GraphPad.

full-length human RORγt, sequence (P51449 other isoform, or with tags, fused parts or gaps): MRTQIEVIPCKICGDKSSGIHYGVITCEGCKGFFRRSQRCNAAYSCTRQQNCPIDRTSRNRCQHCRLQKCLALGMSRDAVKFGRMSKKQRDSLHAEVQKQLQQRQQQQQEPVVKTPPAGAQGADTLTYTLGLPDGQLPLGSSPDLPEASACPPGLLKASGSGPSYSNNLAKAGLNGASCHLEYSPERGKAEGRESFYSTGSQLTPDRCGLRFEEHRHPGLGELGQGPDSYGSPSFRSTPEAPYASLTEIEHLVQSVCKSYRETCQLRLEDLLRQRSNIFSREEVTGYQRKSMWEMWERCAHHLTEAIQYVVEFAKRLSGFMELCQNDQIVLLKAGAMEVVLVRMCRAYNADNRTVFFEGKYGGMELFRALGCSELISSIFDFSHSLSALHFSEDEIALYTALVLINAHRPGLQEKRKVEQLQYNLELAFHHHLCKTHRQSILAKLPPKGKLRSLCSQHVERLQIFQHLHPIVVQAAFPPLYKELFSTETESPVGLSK
human RORγt ligand binding domain (RORγt LBD), sequence (P51449 other isoform, or with tags, fused parts or gaps): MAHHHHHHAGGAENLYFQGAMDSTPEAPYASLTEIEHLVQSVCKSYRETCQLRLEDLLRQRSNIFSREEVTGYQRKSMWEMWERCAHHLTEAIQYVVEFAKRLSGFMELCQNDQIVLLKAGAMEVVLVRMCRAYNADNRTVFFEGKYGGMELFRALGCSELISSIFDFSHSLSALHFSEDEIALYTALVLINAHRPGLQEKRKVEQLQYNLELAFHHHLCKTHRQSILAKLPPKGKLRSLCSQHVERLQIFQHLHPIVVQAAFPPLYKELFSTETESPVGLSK

## CC(=O)N1CCN(Cc2ccc(-c3ccc(C(O)(C(F)(F)F)C(F)(F)F)cc3)cc2)CC1 [SR1555]
Obese diabetic mice
  body weight: reduced
  fat mass: significant reduction
  food intake: modest reduction
  insulin sensitivity: improved

## CC(=O)Nc1nc(C)c(S(=O)(=O)Nc2ccc(C(O)(C(F)(F)F)C(F)(F)F)cc2)s1 [SR1001]
mice
  Th17-dependent learned helplessness: reduced Th17-dependent learned helplessness

## CC(C)(O)CNC(=O)c1nc(C(=O)N2CCC(F)CC2)c(-c2cnc(NC3CCCCC3)cc2C(F)(F)F)s1 [Example 3, 5-(6-(Cyclohexylamino)-4-(trifluoromethyl)pyridin-3-yl)-4-(4-fluoropiperidine-1-carbonyl)-N-(2-hydroxy-2-methylpropyl)thiazole-2-carboxamide]
[1]
  pKd: 8.02
full-length human RORγt; marked **: footnote not shown
  RORγt (FL) Reporter Assay A, % inhibition (value marked **): 106** %
full-length human RORγt; read-out: RORγt (FL) Reporter Assay A, IC50
  pIC50: 7.46
[2]
  pIC50: 7.40
